Results as given in US6521568B1, “Plant disease controlling compositions and plant disease controlling method” (Sumitomo Chemical Company, Limited, priority 1999, dated 2003).

Test system: fungi of gray mold of cucumber
Experiment: Controlling effect on gray mold of cucumber, foliar spray on potted cucumber plants
Assay type: in vivo, Botrytis cinerea
Details: single compound, 5.0 ppm, 10° C. humid for 6 days after inoculation
Experimental: Plastic pots were filled with sandy loam and sown with cucumber (Sagamihanjiro), followed by growing in a greenhouse for 12 days. A wettable powder of the Compound (I-j) and a wettable powder of procymidone were separately diluted with water, and these dilutions were tank-mixed, then the tank-mixed dilution of the prescribed concentrations of the Compound (I-j) and procymidone was prepared. Said tank-mixed dilution was sprayed to foliage of said cucumber so as to adhere the dilution sufficiently to the surfaces of its leave. After air-drying, a PDA medium including hyphae of the fungi of gray mold of cucumber was placed on the leave surfaces of said cucumber. After inoculation, the plastic pots were placed under a humid environment of 10° C. for 6 days, and then the controlling effect was examined. […]
At the examination, the following evaluation indices was used. The attack rates were calculated with Scheme 1, and then on the basis of the attack rates, the controlling values were calculated with Scheme 2. […]
The controlling effect, which is expected when treatment is carried out by mixing the given two species of active ingredient compounds, is generally calculated according to the following Colby equation described at Scheme 3. […]

**Q.** With `CC12CC1(C)C(=O)N(c1cc(Cl)cc(Cl)c1)C2=O` (stereo not shown) [(II), N-(3,5-dichlorophenyl)-1,2-dimethylcyclopropane-1,2-dicarboximide] as the compound, how does the Actual controlling value read?
**A.** The Actual controlling value was 0%.
